According to US4546084A, “Biologically pure culture of Actinomadura Sp” (Bristol-Myers Company, priority 1984, dated 1985):

Experiments:
[1] = tested on: Bacillus subtilis PCI 219; assay: In vitro antimicrobial activity, serial two-fold agar dilution; format: cell-based; conditions: nutrient agar medium
Experimental: (§1) The antibacterial activity of BBM-1644 was determined by the serial two-fold agar dilution method. Nutrient agar medium was used for gram-positive and gram-negative bacteria; nutrient agar medium containing 4% glycerol for acid-fast bacteria and Sabaouraud agar medium for fungi. The activity was expressed as minimum inhibitory concentration (MIC) in the agar medium and the results are shown in Table 6 along with those of neocarzinostatin.

[2] = tested on: Candida albicans IAM 4888; assay: as above; format: cell-based; conditions: Sabouraud agar medium
Experimental: as §1

Escherichia coli NIHJ = assay: as above; format: cell-based; conditions: nutrient agar medium
Experimental: as §1

[3] = tested on: Klebsiella pneumoniae D-11; assay: as above; format: cell-based; conditions: nutrient agar medium
Experimental: as §1

Micrococcus flavus D12 = assay: as above; format: cell-based; conditions: nutrient agar medium
Experimental: as §1

[4] = tested on: Micrococcus luteus PCI 1001; assay: as above; format: cell-based; conditions: nutrient agar medium
Experimental: as §1

Mycobacterium phlei D88 = assay: as above; format: cell-based; conditions: nutrient agar medium containing 4% glycerol
Experimental: as §1

[5] = tested on: Mycobacterium smegmatis 607 D87; assay: as above; format: cell-based; conditions: nutrient agar medium containing 4% glycerol
Experimental: as §1

Proteus vulgaris A9436 = assay: as above; format: cell-based; conditions: nutrient agar medium
Experimental: as §1

[6] = tested on: Pseudomonas aeruginosa A9930; assay: as above; format: cell-based; conditions: nutrient agar medium
Experimental: as §1

[7] = tested on: Staphylococcus aureus FDA 209P; assay: as above; format: cell-based; conditions: nutrient agar medium
Experimental: as §1

[8] = tested on: Staphylococcus aureus Smith; assay: as above; format: cell-based; conditions: nutrient agar medium
Experimental: as §1

[9] = tested on: Streptococcus pyogenes A20201; assay: as above; format: cell-based; conditions: nutrient agar medium
Experimental: as §1

lysogenic bacterium = assay: Induction of prophage in lysogenic bacterium (ILB); format: cell-based; conditions: significant activity: T/C of >3.0
Experimental: The ability of BBM-1644 to induce prophage in lysogenic bacterium (ILB) was determined by the method of Lein et. al. (Nature 196: 783-784, 1962) using neocarzinostatin as a reference compound. The plaque count was made on agar plates containing test material (T) and control (C). A T/C ratio of the plaque counts of greater than 3 was considered significant and the ILB activity was expressed by the minimum inducing concentration of the test compound.

[10] = tested on: lymphocytic leukemia P388; assay: Antitumor activity in mice against lymphocytic leukemia P388 (Table 8); format: in vivo, mice (BDF1 strain); conditions: ip, significant ≥125%
Experimental: The antitumor activity of BBM-1644 was determined in mice (BDF1 strain) against lymphocytic leukemia P388. Each mouse was inoculated intraperitoneally with 3×10^5 cells of the tumor. Graded doses of the antibiotic were administered to mice intraperitoneally 24 hours after tumor implantation. The treatments were given once a day on days 1, 4 and 7 (q3d ×3 schedule) or 9 consecutive days (qd 1→9 schedule).

P388 leukemia = assay: Effect on P388 leukemia in mice, second test (Table 9); format: in vivo, CDF1 female mice; conditions: D.1,4&7; for Survivors Day 5: Tox <4/6 alive; for MST % T/C: ≥125 significant
Text: Antitumor activity of BBM-1644 was also indicated by a second test against P388 leukemia in mice, the results of which are shown below in Table 9. Details of the methods used in this test have been described in Cancer Chemother. Rep. 3: 1-87 (Part 3), 1972.
10^6 ascites cells, ip (plus titration)
Host: CDF1 .female. mice.
Tox: <4/6 mice alive on Day 5.
MST = median survival time.
Effect: % T/C = (MST treated/MST control) × 100.
Criteria: % T/C ≥ 125 considered significant antitumor

Question: With Neocarzinostatin as the substance, how does the MIC [1] read?
Answer: 3.1 µg/mL

Question: And the MIC [2]?
Answer: > 100 µg/mL

Question: What about the MIC (Escherichia coli NIHJ) of the same substance?
Answer: > 100 µg/mL

Question: And the MIC [3]?
Answer: > 100 µg/mL

Question: What about the MIC (Micrococcus flavus D12) of the same substance?
Answer: 1.6 µg/mL

Question: And the MIC [4]?
Answer: 1.6 µg/mL

Question: And the MIC (Mycobacterium phlei D88)?
Answer: 12.5 µg/mL

Question: And the MIC [5]?
Answer: 50 µg/mL

Question: And the MIC (Proteus vulgaris A9436)?
Answer: > 100 µg/mL

Question: And the MIC [6]?
Answer: > 100 µg/mL

Question: And the MIC [7]?
Answer: 1.6 µg/mL

Question: What about the MIC [8] of the same substance?
Answer: 0.8 µg/mL

Question: What about the MIC [9] of the same substance?
Answer: 3.1 µg/mL

Question: And the “ILB activity (T/C)” value (lysogenic bacterium; 0.1 mcg/ml)?
Answer: 0.7

Question: And the “ILB activity (T/C)” value (lysogenic bacterium; 1 mcg/ml)?
Answer: 10.8

Question: What about the “ILB activity (T/C)” value (lysogenic bacterium; 10 mcg/ml) of the same substance?
Answer: 20.4

Question: What about the “ILB activity (T/C)” value (lysogenic bacterium; 100 mcg/ml) of the same substance?
Answer: 28.6

Question: And the “T/C (%) in MST” value ([10]; 0.01 mg/kg/day, gd 1→9)?
Answer: 113%

Question: What about the “T/C (%) in MST” value ([10]; 0.03 mg/kg/day, gd 1→9) of the same substance?
Answer: 125%

Question: What about the “T/C (%) in MST” value ([10]; 0.03 mg/kg/day, q3d × 3) of the same substance?
Answer: 113%

Question: And the “T/C (%) in MST” value ([10]; 0.1 mg/kg/day, gd 1→9)?
Answer: 138%

Question: And the “T/C (%) in MST” value ([10]; 0.1 mg/kg/day, q3d × 3)?
Answer: 125%

Question: And the “T/C (%) in MST” value ([10]; 0.3 mg/kg/day, gd 1→9)?
Answer: 163%

Question: And the “T/C (%) in MST” value ([10]; 0.3 mg/kg/day, q3d × 3)?
Answer: 150%

Question: What about the “T/C (%) in MST” value ([10]; 1 mg/kg/day, q3d × 3) of the same substance?
Answer: 163%

Question: What about the “AWC d.6” value (P388 leukemia; 0.05 mg/kg/inj IP) of the same substance?
Answer: -1.7 gm

Question: And the MST (P388 leukemia; 0.05 mg/kg/inj IP)?
Answer: 12.0 days

Question: And the “Survivors Day 5” value (P388 leukemia; 0.05 mg/kg/inj IP)?
Answer: 6/6

Question: What about the “MST % T/C” value (P388 leukemia; 0.05 mg/kg/inj IP) of the same substance?
Answer: 133%

Question: What about the “AWC d.6” value (P388 leukemia; 0.1 mg/kg/inj IP) of the same substance?
Answer: -1.2 gm

Question: And the MST (P388 leukemia; 0.1 mg/kg/inj IP)?
Answer: 13.5 days

Question: What about the “Survivors Day 5” value (P388 leukemia; 0.1 mg/kg/inj IP) of the same substance?
Answer: 6/6

Question: What about the “MST % T/C” value (P388 leukemia; 0.1 mg/kg/inj IP) of the same substance?
Answer: 150%

Question: What about the “AWC d.6” value (P388 leukemia; 0.2 mg/kg/inj IP) of the same substance?
Answer: -2.5 gm

Question: And the MST (P388 leukemia; 0.2 mg/kg/inj IP)?
Answer: 15.0 days

Question: And the “Survivors Day 5” value (P388 leukemia; 0.2 mg/kg/inj IP)?
Answer: 6/6

Question: And the “MST % T/C” value (P388 leukemia; 0.2 mg/kg/inj IP)?
Answer: 167%

Question: And the “AWC d.6” value (P388 leukemia; 0.4 mg/kg/inj IP)?
Answer: -3.2 gm

Question: What about the MST (P388 leukemia; 0.4 mg/kg/inj IP) of the same substance?
Answer: 15.5 days

Question: And the “Survivors Day 5” value (P388 leukemia; 0.4 mg/kg/inj IP)?
Answer: 6/6

Question: And the “MST % T/C” value (P388 leukemia; 0.4 mg/kg/inj IP)?
Answer: 172%

Question: And the “AWC d.6” value (P388 leukemia; 0.8 mg/kg/inj IP)?
Answer: -4.3 gm

Question: And the MST (P388 leukemia; 0.8 mg/kg/inj IP)?
Answer: 10.5 days

Question: What about the “Survivors Day 5” value (P388 leukemia; 0.8 mg/kg/inj IP) of the same substance?
Answer: 6/6

Question: And the “MST % T/C” value (P388 leukemia; 0.8 mg/kg/inj IP)?
Answer: 117%

Question: And the “AWC d.6” value (P388 leukemia; 1.6 mg/kg/inj IP)?
Answer: -4.8 gm

Question: What about the MST (P388 leukemia; 1.6 mg/kg/inj IP) of the same substance?
Answer: 8.0 days

Question: And the “Survivors Day 5” value (P388 leukemia; 1.6 mg/kg/inj IP)?
Answer: 6/6

Question: And the “MST % T/C” value (P388 leukemia; 1.6 mg/kg/inj IP)?
Answer: 89%
